“Also recorded” adds a separate entry of the source.
Columns and labels:
NG108-15 cells [1] = assay: Growth and FUCCI assays in NG108-15 cells (cell counts, cell cycle, recovery test); settings: for fold decrease in proliferation compared to control: high serum; for FUCCI cell cycle proportion: NG108-15, day 6
Procedure: Cells were plated in 96 well plates at a low confluence and drugs were added fresh every other day for 6 days. Some studies removed the drug at 6 days and added media with no drug for an additional 4 days to test for proliferation. Images of the cells were taken every day and a cell profiler pipeline was used to count the cells and determine the ratio of cells in each part of the cell cycle. […] Cell Culture. […] Cells were disassociated with Accutase and passaged when 70% confluent and maintained at 37° C. with 5% C02. Media was changed every two days. […] All drug screens including controls were done using 0.02% DMSO in the high serum Fluorobrite DMEM.
Growth and FUCCI assays. Both cell lines were plated at 5,000 cells per mL into black-walled flat-bottom 96-well plates coated with 1/50 dilution of Matrigel. Images of cells were taken on Day 0 and every subsequent day for 10 days using a Zeiss Axio1 fitted with an on-stage incubator and kept at 37° C. with 5% C02. A 5× objective was used along with filters for YFP, RFP, and CFP and careful calibration of each plate was done to ensure that the same fields of view were imaged each day. Drugs were added after the initial images were taken and then changed every two days until day 6. For recovery experiments, after imaging on day 6, all drugs were removed, and cells were put into imaging media without any added drugs. This media was changed every two days until day 10. Analysis of growth and snap shots of FUCCI reporters over the 6 days or 10 days was done using a CellProfiler [72]pipeline designed by the Broad. The fractional difference in cell number was calculated by dividing the total number of cells each day by the total number of cells from day 0. The ratio of cells in each cell cycle stage every day was determined by counting all the nuclei of one color and dividing it by the total number of nuclei. Blind quality control was done on all the images to make sure that any fibers or image artifacts were not incorrectly counted by the program.

NG108-15 cells [2] = assay: Automated patch-clamp electrophysiology, resting membrane potential; format: cell-based, mouse/rat; settings: NG108-15, immediately after application
Procedure: Electrophysiology. SyncroPatch 384PE platform (Nanion Technologies®) was used to perform the automated patch-clamp experiments. This system provides giga-ohm resistance seals during simultaneous recording in the 384-well plate format. Cells were harvested 48-72 h after seeding 1-2×10^6 cells in T175 culture flasks (Falcon), then cells were rinsed with PBS (5 mL) and treated with 3 mL Accutase ([…] technologies) for 5 min at 37° C., re-suspended in 10 mL of serum-free media and pelleted at 1000 rpm for 3 min at RT. […] The cells were kept until the moment of the experiment in a temperature controlled dedicated reservoir at 10° C. and shaken at 200 rpm as described. The experiments were performed within one hour after the harvesting process. The assays were carried in single-hole chips with resistances between 4-5 MΩ after priming the chip with the following solutions (in mM), physiological extracellular solution (pECS) 10 HEPES, 140 NaCl, 5 Glucose, 4 KCl, 2 CaCl2), 1 MgCl2, 295-305 mOsm pH 7.4 (NaOH). Internal recording solution (in mM) 20 EGTA, 50 KCl, 10 NaCl, 60 KF, 10 HEPES at pH 7.2, and 285 mOsm. 15 μL of the cell suspension (50% v/v pECS/Medium no serum) was added to each well to a final density of 50-80K cells/mL. Cell capture was promoted by holding a negative pressure of −100 mbar for 20 s. After successive hyperpolarization steps from −30 mV to −100 mV enhanced the capture the seal followed by the transient addition of a high Ca2+ extracellular solution (80 mM NaCl, 3 mM KCl, 35 mM CaCl2), 10 mM MgCl2, 10 mM HEPES at pH 7.4 and 298 mOsm. High Ca2+ solution is washed out by successive external exchanges replacing half of the volume of the well each time with the external recording solution. All recording solutions were prepared with ultrapure MilliQ water (18 MD-cm). After the formation of the Giga-seal, a 250 mbar pressure was applied to break the membrane patch. Once in whole-cell configuration, different voltage protocols were applied to dissect different conductances in NG108-15 cells. Signals were recorded in the current-clamp mode “I=0” (passive conditions) where no current was injected, to monitor the membrane potential. The membrane potentials were recorded for seven sweeps of 1 sec, with an inter-sweep time of 10 s. The average membrane potentials of the 7 sweeps were reported.
Electrophysiology of NG108-15 Cells Show Changes in Resting Membrane Potential Induced by Treatment. […] Untreated cells were patched, baseline measurements were taken and then the drugs were added and the changes in the cell Vmem were recorded.

U87 cells = assay: Physiological dye staining of U87 cells (DiBAC4(3), pHrodo Green, LysoSensor Green, Fluo-4 AM); format: cell-based, human
Procedure: Dye Staining Protocols. For the Live/Dead assay, 1 μM Calcein Green AM and 0.5 μM ethidium homodimer-1 (L3224, ThermoFisher) were added to PBS along with 10 μg/mL of Hoechst to make the staining solution. Half the media was removed from the human neuronal cells that had been incubated with treatments for 3 days and replaced with staining solution. […] Cells were then incubated for 15 min at 37° C. and imaged. For resting membrane potential staining, DiBAC4(3) was used. U87 cells were seeded at 10,000 cells per mL on Matrigel coated plates as described above. Cells were treated with drugs for 6 days with changes in media every other day. On day 6 the media was removed and washed once with dye buffer consisting of Hank's Balanced Salt Solution (HBSS) with 20 mM HEPES at pH 7.4 and then the staining solution, consisting of dye buffer with 2 μM DiBAC4(3) was added to the cells and allowed to incubate for 30 min at 37° C. The staining solution was then removed and fresh staining solution containing the treatments were added to the cells. For cytoplasmic calcium staining, Fluo-4 AM was used. The staining solution consisted of dye buffer with 4 μM Fluo-4 AM and a 1:1 ratio of Pluronic F-127 (20% in DMSO) and allowed to incubate for 30 min at room temperature. The staining solution was then removed, and fresh dye buffer was added and allowed to incubate for 20 min at 37° C. Then dye buffer containing the treatments were added to the cells. For cytoplasmic pH staining, pHrodo Green was used. The staining solution consisted of dye buffer with a 1:1000 dilution of the pHrodo Green stock and a 1:100 dilution of the PowerLoad concentrate (P35373, ThermoFisher). The cells were allowed to incubate for 30 min at 37° C. Staining solution was removed and washed once with dye buffer then fresh dye buffer containing the treatments were added and allowed to incubate for 5 min at 37° C. Calibration curve was done by instead adding the components of the intracellular pH calibration kit (P35379 ThermoFisher). For lysosomal pH staining, LysoSensor Green was used. The staining solution consisted of dye buffer with a 1 μM dilution of LysoSensor Green DND-187 (L7535 ThermoFisher). The cells were incubated as above and staining solution was removed and replaced with dye buffer containing 2.5 μg/mL Hoechst 33342 for 10 min. Hoechst was removed and cells were washed with dye buffer one time before adding dye buffer containing the treatments. Cells were imaged using an EVOS M7000 system outfitted with a GFP filter cube for stains and a DAPI filter for Hoechst. Images were then analyzed using a CellProfiler pipeline.

[3] = system: human glioblastoma U87 cells; assay: Growth and FUCCI assays in U87 cells (cell counts, cell cycle, recovery test); format: cell-based; settings: for FUCCI cell cycle proportion: U87, day 6; for recovery of proliferation after treatment removed: U87, drugs removed at day 6, followed to day 10
Procedure: U87 (ATCC) cells were cultured under the same conditions as the NG108-15 cells minus the HAT supplement and used at passage 7-10 for experiments.

SMILES	fold decrease in proliferation compared to control (NG108-15 cells [1]; NG108-15, 6 days of treatment, NS1643 at 20 μM)	fold decrease in proliferation compared to control (NG108-15 cells [1]; NG108-15, 6 days of treatment, NS1643 at 50 μM) [fold]	FUCCI cell cycle proportion (NG108-15 cells [1])	change in resting membrane potential compared to control (NG108-15 cells [2])	resting membrane potential by voltage dye DiBAC4(3) (U87 cells; U87, 6 day treated)	cytoplasmic calcium levels (Fluo-4AM) (U87 cells; U87, 6 days)	lysosomal pH (LysoSensor Green) (U87 cells; U87, 6 days)	fold decrease in cell proliferation to control ([3]; U87, 6 days, NS1643 at 50 μM) [fold]	FUCCI cell cycle proportion [3]	recovery of proliferation after treatment removed [3]	cell proliferation compared to control (words) (NG108-15 cells [1]; NG108-15, 6 days of treatment)	recovery of proliferation after treatment removed (NG108-15 cells [1]; NG108-15, drugs removed at day 6, followed to day 10)	lysosomes (LysoSensor Green signal) (U87 cells; U87, 6 days)	cell proliferation compared to single compound alone ([3]; U87, 6 days)	percent reduction in cells compared to control ([3]; U87, 6 days of treatment) [%]
O=C(Nc1cc(C(F)(F)F)ccc1O)Nc1cc(C(F)(F)F)ccc1O [NS1643]	about 1.6 fold	~2.4	did not seem to affect the cell cycle proportion	significantly hyperpolarized	significant hyperpolarization	increase cytoplasmic calcium levels	dramatic alkalization of the lysosomes	1.7	did not show a large change in proportion of cells	high increase in proliferation					
COc1ccnc(C[S+]([O-])c2nc3ccc(OC(F)F)cc3[nH]2)c1OC (centres unmarked) [Pantoprazole, pantoprazole]			increase in cells arrested at late S phase; also recorded: increases the proportion of cells in early S	did not have an immediate effect			did not show an alkalinization of the lysosome		increase in the early S proportion of cells	immediately re-entered the cell cycle	very significant decrease in cell proliferation	immediately re-entered the cell cycle	significant increase in lysosomes	significantly more effective at reducing cell proliferation after 6 days of treatment than TMZ alone	54

Reference: patent publication US20250049747A1, “USE OF HYPERPOLARIZING AGENTS ALONE AND IN COMBINATION WITH OTHER THERAPEUTIC AGENTS FOR TREATING CANCERS INCLUDING GLIOBLASTOMA” (Trustees of Tufts College, priority 2021, published 2025)
